Results: US20080292688A1, “Liposome and preparation method of the same” (Industrial Technology Research Institute, priority 2003, published 2008)
Converted amounts (≈) assume the structure as drawn.

Test: physchem
Settings: Solubility of RA
Method: Therefore, TPGS is added with ethanol to increase the solubility of the hydrophobic drug in according to the present invention.

- solubility (aqueous buffer): < 0.1 µg/mL
- solubility (saline or isotonic): 4 µg/mL (≈ 13.3 µM)
Compound: CC1=C(/C=C/C(C)=C/C=C/C(C)=C/C(=O)O)C(C)(C)CCC1 [RA, All-Trans Retinoic Acid]
